In publication PMC10224329, “Design, Synthesis, and Antiproliferative Activity of Benzopyran-4-One-Isoxazole Hybrid Compounds” (Molecules, 2023):

Legend:
[1] = tested on: human embryonic kidney (HEK-293) cell lines; test: MTS cell viability assay, non-cancerous cells; assay type: cell-based; details: Homo sapiens
Text: (§1) The compounds were further screened for their in vitro cytotoxicity against non-cancerous normal cell lines, viz., human embryonic kidney (HEK-293) and normal pig kidney (LLCPK) cell lines. These cell lines were selected to determine whether the compounds had selectivity against cancerous cells in contrast to non-cancerous cells. The data obtained is shown in Figure 3a–b (cf. Supplementary Materials for the data obtained for intermediates and starting materials Figure S28.7–S28.8, page no. 77–78).
(§2) Cell viability assays were performed using the MTS protocol. The in vitro cytotoxicity of the conjugates was evaluated using six human cancer cell lines, one human normal kidney cell line, and one mammalian normal kidney cell line, which included human leukemia carcinoma cell lines (CCRF-CEM), human ovarian adenocarcinoma cell lines (SKOV-3), human breast tumor cell lines (MDA-MB-231), human prostate cancer cell lines (PC-3), androgen-independent human prostate cancer cell lines (DU-145), human renal carcinoma (iSLK), human embryonic kidney cell lines (HEK-293), and normal mammalian kidney cell line (LLCPK) to determine the toxicity of the synthesized conjugates. CCRF-CEM cells were seeded at 50,000 cells in 0.1 mL per well in 96-well plates, and in the case of SKOV-3, MDA-MB-231, PC-3, DU-145, HEK-293, and LLCPK cell lines, the cells were seeded at 5000 cells in 0.1 mL per well in 96-well plates. The CCRF-CEM cells were seeded in RPMI-1640 media containing 2mM L-glutamine, 1.5 g/L sodium bicarbonate, supplemented with fetal bovine serum (FBS) 10% media, SKOV-3, MDA-MB-231, and LLCPK cells were seeded in MEME media with Earle’s salts and sodium bicarbonate, without L-glutamine, supplemented with fetal bovine serum (FBS) 10%, PC-3 cells were seeded in DMEM:F-12 containing 1:1 mixture with L-glutamine with HEPES, supplemented with fetal bovine serum (FBS) 10%, and DU-145 and HEK-293 cells were seeded in DMEM containing 4500 mg/L glucose, L-glutamine, and sodium bicarbonate, without sodium pyruvate, supplemented with FBS (10%), 24 h prior to the experiment. The compounds at a final concentration of 25 µM (higher concentration stock solution prepared in DMSO) were added to each well in triplicate and incubated for 24 and 72 h at 37 °C in a humidified atmosphere (95% air and 5% CO2). The cell viability was then determined by measuring the absorbance of the formazan product at 490 nm using a microplate reader using a SpectraMax M2 microplate spectrophotometer, Molecular Devices, San Jose, CA, USA. The percentage of cell survival was calculated as [(OD value of cells treated with the test mixture of compounds) − (OD value of culture medium)]/[(OD value of control cells) − (OD value of culture medium)] × 100%. IC50 values of compounds were calculated using non-linear regression analysis in GraphPad Prism (Boston, MA, USA).

[2] = tested on: normal pig kidney (LLCPK) cell lines; test: MTS cell viability assay, non-cancerous cells; assay type: cell-based; details: Sus scrofa, conjugates at 25 μM, 72 h
Text: as §1, §2

[3] = tested on: panel of cancer cell lines (CCRF-CEM, SKOV-3, MDA-MB-231, PC-3, DU-145, iSLK); test: MTS cell viability assay, summary over the cancer cell line panel; assay type: cell-based; details: Homo sapiens
Protocol: All the 14 hybrid compounds synthesized via Scheme 1, along with the intermediates and starting compounds, were tested in vitro for their cytotoxicity against a panel of 6 human cancer cell lines. This panel involved human leukemia carcinoma (CCRF-CEM), human ovarian adenocarcinoma (SKOV-3), human breast tumor (MDA-MB-231), human prostate cancer (PC-3), androgen-independent human prostate cancer (DU-145), and human renal carcinoma (iSLK) cell lines. The compounds were tested at a concentration of 25 μM for incubation periods of 24 and 72 h. Standard anticancer drug doxorubicin at a concentration of 5 μM and DMSO were used as controls in all the cell assays. The antiproliferative profile of benzopyran-4-one-isoxazole conjugates is shown in Figure 2 (cf. Supplementary Materials for the data obtained for intermediates and starting materials Figure S28.1–S28.6, page no. 71–76).
as §2

mTOR/FRAP1 = biological target: T1, mTOR/FRAP1 (Homo sapiens, UniProt P42345); test: Protein kinase assay (Reaction Biology); assay type: biochemical; details: duplicate, 200 μM ATP, read-out: % Enzyme Activity (Relative to DMSO Controls) mTOR/FRAP1
T1 construct: purchased Reaction Biology Corporation
Protocol: (§3) Therefore, selected compound 5a was screened against several protein kinases to explore the potential of these hybrid compounds as kinase inhibitors. The screening of compound 5a was performed on a panel of 9 kinases, viz., ABL1, c-Kit, c-Src, CDK2/cyclin A1, CSK, EGFR, mTOR/FRAP1, p38a/MAPK14, PKCa, and PI3K, at a dose of 20 μM. The respective positive controls were used for each kinase, and the kinase reaction was performed at 200 μM ATP concentration for all the kinases except for PI3K, which was performed at 10 µM ATP (Table 2). […] It appeared that compound 5a containing a 3-position substitution with an isoxazole ring and a 4-position with a carbonyl group has a detrimental effect on kinase inhibition. Previously 3-substituted benzopyran compound with a short alkyl chain of urea (NH-CO-NH-Et/Me/iPr) was reported with Abl kinase inhibitory activity in the range of 4–27 μM [36]. […] Due to prominent antiproliferative activity, these compounds may have some other targets for anticancer activity.
(§4) Compound 5a was tested at a single dose of 20 μM against 9 kinases, viz., Abl1, c-Kit, c-Src, CDK2/cyclin A1, CSK, EGFR, mTOR/FRAP1, p38a/MAPK14, PKCa, and PI3K using our previously reported protocol in duplicate by Reaction Biology Corporation. The respective positive controls, e.g., staurosporine for all the kinases, except SB202190 for P38a/MAP14 and P1-103 for mTOR/FRAP1, were used, and the kinase reaction was performed at 200 μM ATP concentration for all the kinases except for PI3K, which was performed at 10 µM ATP.

c-Src = biological target: T2, c-Src (Homo sapiens, UniProt P12931); test: Protein kinase assay (Reaction Biology); assay type: biochemical; details: duplicate, 200 μM ATP, read-out: % Enzyme Activity (Relative to DMSO Controls) c-Src
T2 construct: purchased Reaction Biology Corporation
Protocol: as §3, §4

PI3K (p110a/p65a) = biological target: T3, PI3K (p110a/p65a) (Homo sapiens, UniProt P42336); test: Protein kinase assay (Reaction Biology); assay type: biochemical; details: duplicate, 10 µM ATP, read-out: % Enzyme Activity (Relative to DMSO Controls) PI3K (p110a/p65a)
T3 construct: purchased Reaction Biology Corporation
Protocol: as §3, §4

p38a/MAPK14 = biological target: T4, p38a/MAPK14 (Homo sapiens, UniProt Q16539); test: Protein kinase assay (Reaction Biology); assay type: biochemical; details: duplicate, 200 μM ATP, read-out: % Enzyme Activity (Relative to DMSO Controls) p38a/MAPK14
T4 construct: purchased Reaction Biology Corporation
Protocol: as §3, §4

T2 sequence (P12931 whole entry): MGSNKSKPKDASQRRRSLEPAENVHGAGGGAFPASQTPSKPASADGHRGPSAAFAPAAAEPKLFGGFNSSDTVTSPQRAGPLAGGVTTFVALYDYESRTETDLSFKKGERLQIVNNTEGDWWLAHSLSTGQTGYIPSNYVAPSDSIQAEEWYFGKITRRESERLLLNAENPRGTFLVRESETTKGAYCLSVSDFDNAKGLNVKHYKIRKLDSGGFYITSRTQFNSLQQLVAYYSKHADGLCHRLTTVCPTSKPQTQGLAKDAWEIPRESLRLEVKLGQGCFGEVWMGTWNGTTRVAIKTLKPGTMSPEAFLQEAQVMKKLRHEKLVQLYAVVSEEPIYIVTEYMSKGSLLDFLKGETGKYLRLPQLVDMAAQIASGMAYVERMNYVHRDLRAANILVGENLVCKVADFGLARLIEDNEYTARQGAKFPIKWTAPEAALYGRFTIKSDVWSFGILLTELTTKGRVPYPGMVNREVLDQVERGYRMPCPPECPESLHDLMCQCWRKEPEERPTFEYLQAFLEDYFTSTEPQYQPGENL
T3 sequence (P42336 whole entry): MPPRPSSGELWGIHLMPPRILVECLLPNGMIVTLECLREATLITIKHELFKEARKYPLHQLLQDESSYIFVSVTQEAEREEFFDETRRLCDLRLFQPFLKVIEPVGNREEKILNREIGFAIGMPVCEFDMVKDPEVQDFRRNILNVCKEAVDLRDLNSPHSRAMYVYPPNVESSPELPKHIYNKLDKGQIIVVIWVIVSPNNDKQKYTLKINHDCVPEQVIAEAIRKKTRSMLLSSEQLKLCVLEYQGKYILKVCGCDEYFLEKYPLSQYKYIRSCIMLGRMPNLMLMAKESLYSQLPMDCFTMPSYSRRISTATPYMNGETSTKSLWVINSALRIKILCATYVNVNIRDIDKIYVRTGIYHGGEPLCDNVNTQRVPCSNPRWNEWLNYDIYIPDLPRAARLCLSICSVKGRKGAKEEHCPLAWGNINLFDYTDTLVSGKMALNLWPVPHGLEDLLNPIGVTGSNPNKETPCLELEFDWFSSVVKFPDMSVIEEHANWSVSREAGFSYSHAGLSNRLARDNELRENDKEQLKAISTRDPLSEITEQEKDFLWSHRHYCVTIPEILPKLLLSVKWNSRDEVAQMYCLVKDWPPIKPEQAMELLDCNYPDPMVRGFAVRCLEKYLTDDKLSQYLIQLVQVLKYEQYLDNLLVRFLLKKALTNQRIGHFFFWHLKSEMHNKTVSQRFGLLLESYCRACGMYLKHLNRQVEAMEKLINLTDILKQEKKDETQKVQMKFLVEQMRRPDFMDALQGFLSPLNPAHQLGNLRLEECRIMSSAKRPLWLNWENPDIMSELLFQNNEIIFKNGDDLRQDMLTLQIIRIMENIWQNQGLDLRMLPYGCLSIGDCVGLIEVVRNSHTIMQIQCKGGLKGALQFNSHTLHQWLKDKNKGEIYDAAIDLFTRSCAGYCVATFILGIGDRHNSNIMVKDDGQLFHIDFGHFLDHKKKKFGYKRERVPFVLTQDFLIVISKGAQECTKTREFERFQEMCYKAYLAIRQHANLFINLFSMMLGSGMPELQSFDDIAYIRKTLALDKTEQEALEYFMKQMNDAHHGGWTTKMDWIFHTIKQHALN
T4 sequence (Q16539 whole entry): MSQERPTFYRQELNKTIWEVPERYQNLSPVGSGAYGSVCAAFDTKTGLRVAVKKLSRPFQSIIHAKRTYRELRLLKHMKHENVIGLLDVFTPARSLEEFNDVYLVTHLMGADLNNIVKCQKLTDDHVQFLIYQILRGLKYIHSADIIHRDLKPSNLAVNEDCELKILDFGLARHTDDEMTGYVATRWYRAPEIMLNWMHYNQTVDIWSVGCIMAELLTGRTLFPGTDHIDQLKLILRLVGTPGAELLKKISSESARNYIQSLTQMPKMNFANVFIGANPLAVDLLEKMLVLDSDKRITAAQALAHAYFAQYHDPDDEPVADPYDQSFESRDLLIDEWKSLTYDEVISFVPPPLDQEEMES

IC50 ([3]; range over CCRF-CEM, MDA-MB-231, PC3, DU-145, read-out: IC50 against all the cancer cell lines (range)): 5.6 to 17.8 µM
remaining activity at 20 µM (mTOR/FRAP1): 112%
remaining activity at 20 µM (c-Src): 113%
remaining activity at 20 µM (PI3K (p110a/p65a)): 110%
remaining activity at 20 µM (p38a/MAPK14): 83.1%
Compound: Cc1noc(C)c1C(=O)OCc1coc2ccccc2c1=O [Compound 5a, (4-Oxo-4H-1-benzopyran-3-yl)methyl 3,5-dimethylisoxazole-4-carboxylate]
IC50 ([1]; HEK293, normal HEK-293 cells, average of three independent tests in triplicate): 293 µM
inhibition at 25 µM ([1]; HEK293, conjugates at 25 μM, 72 h): 37%
inhibition at 25 µM [2]: 57%
inhibition at 25 µM ([3]; 25 μM, 72 h, range over six cancer cell lines, read-out: percentage of inhibition (range over the cancer cell lines)): 44 to 81%
